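Exposure lasted 48 hours, with cells grown in 96-well plates and compounds tested at five concentrations. Here, GI50 denotes the concentration required for 50% inhibition of growth.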 The source made the active and inactive calls. Cut-off read from the data, not from the text of the source: active = GI50 up to about 1.1 µM and inactive = higher.
Tests used:
Experiment in all cases: NCI-60 cell line screen, 48 h
[1] = test system: HCT-116
[2] = test system: UO-31
[3] = test system: RXF 393
[4] = test system: KM12
[5] = test system: NCI/ADR-RES
[6] = test system: PC-3
[7] = test system: LOX IMVI
[8] = test system: MDA-MB-231
[9] = test system: SF-539
[10] = test system: HOP-92
[11] = test system: HL-60
[12] = test system: UACC-62
[13] = test system: U-251
[14] = test system: OVCAR-5
[15] = test system: HOP-62
[16] = test system: HT-29
[17] = test system: NCI-H522
[18] = test system: K562
[19] = test system: EKVX
[20] = test system: Malme-3M
[21] = test system: SK-MEL-5
[22] = test system: OVCAR-8
[23] = test system: 786-0
[24] = test system: MDA-MB-435
[25] = test system: SN12C
[26] = test system: HCT-15
[27] = test system: COLO 205
[28] = test system: TK-10
[29] = test system: A549
[30] = test system: NCI-H23
[31] = test system: UACC-257
[32] = test system: M14
[33] = test system: A498
[34] = test system: HCC 2998
[35] = test system: MOLT-4
[36] = test system: OVCAR-4
[37] = test system: NCI-H226
[38] = test system: SK-MEL-2
[39] = test system: MDA-N
[40] = test system: IGROV-1
[41] = test system: SK-OV-3
[42] = test system: MCF7
[43] = test system: Hs-578T
[44] = test system: RPMI-8226
[45] = test system: SNB-75
[46] = test system: OVCAR-3
[47] = test system: ACHN
[48] = test system: T47D
[49] = test system: SF-295
[50] = test system: SW-620
[51] = test system: SK-MEL-28
[52] = test system: SNB-19
[53] = test system: SF-268
[54] = test system: NCI-H460
[55] = test system: SR
[56] = test system: CCRF-CEM
[57] = test system: CAKI-1
[58] = test system: DU-145
[59] = test system: BT-549

Measured: GI50

CCOC(=O)NN(C(=O)OCC)c1ccc(/N=N/c2ccc(OC)cc2)n1C
active: [2] 0.653 µM
inactive: [1] 18.6 µM | [3] 32.4 µM | [4] 24 µM | [5] 25.9 µM | [6] 15.3 µM | [7] 21.5 µM | [8] 19.8 µM | [9] 18.4 µM | [10] 24.8 µM | [11] 19.2 µM | [12] 99.1 µM | [13] 29.9 µM | [14] 32.7 µM | [15] 26.9 µM | [16] 22.4 µM | [17] 18 µM | [18] 23.1 µM | [19] > 100 µM | [20] 25.2 µM | [21] 17.5 µM | [22] 35.5 µM | [23] 32.2 µM | [24] 22.7 µM | [25] 37.1 µM | [27] 21.7 µM | [28] 44.2 µM | [29] 23 µM | [30] 32.6 µM | [31] 23.1 µM | [32] 22.8 µM | [33] 25.3 µM | [34] 31.3 µM | [35] 43.7 µM | [36] 36.9 µM | [37] 26.2 µM | [38] 10.8 µM | [39] 19.7 µM | [40] 29 µM | [41] 30.7 µM | [42] 6 µM | [43] 65.8 µM | [44] 19.9 µM | [45] 10.3 µM | [46] 18.5 µM | [47] 23.6 µM | [48] 21 µM | [49] 37.4 µM
12.5 µM: [26]

O=c1c2cc([N+](=O)[O-])ccc2[nH]n1Cc1ccccc1Cl
inactive: [1] 55.7 µM | [50] 88.9 µM | [2] 39 µM | [3] 35.2 µM | [4] 55.7 µM | [5] 40.6 µM | [51] 44.6 µM | [6] 93.8 µM | [7] > 100 µM | [52] > 100 µM | [53] > 100 µM | [8] 70.5 µM | [9] 98.4 µM | [10] 27.8 µM | [11] 30.8 µM | [54] 31 µM | [12] > 100 µM | [13] 75.5 µM | [14] > 100 µM | [55] 43.5 µM | [15] 38.1 µM | [16] 54.8 µM | [17] 32.7 µM | [18] 48.8 µM | [19] 30.2 µM | [20] 26.7 µM | [21] 34.7 µM | [22] 75.7 µM | [23] 64.9 µM | [24] 64.9 µM | [25] 86.1 µM | [56] 85.5 µM | [27] 73.3 µM | [28] 18.2 µM | [29] 42.1 µM | [30] 59.6 µM | [31] 98.6 µM | [32] 86.1 µM | [33] 33.3 µM | [34] 57.9 µM | [35] 74 µM | [36] > 100 µM | [57] > 100 µM | [37] 74.1 µM | [39] > 100 µM | [40] 80.2 µM | [43] 48.8 µM | [44] 30.1 µM | [45] > 100 µM | [46] > 100 µM | [47] 46.1 µM | [58] 47 µM | [49] > 100 µM
> 100 µM: [26]

CC12CCc3ccccc3C1=Nc1ccccc12 (stereo not drawn)
active: [25] 0.164 µM
38.1 µM: [26]
inactive: [1] 32.7 µM | [50] 45.9 µM | [2] 24.3 µM | [3] 74.3 µM | [4] 24.1 µM | [5] 22.4 µM | [51] 90.2 µM | [6] 14.3 µM | [7] 40.8 µM | [52] > 100 µM | [53] 98.2 µM | [8] 24.2 µM | [9] 14.2 µM | [10] 12.9 µM | [11] 28.8 µM | [54] 37.3 µM | [12] 29.4 µM | [13] 44.6 µM | [14] > 100 µM | [55] 45.3 µM | [15] 86.1 µM | [16] 29.9 µM | [17] 23.7 µM | [18] 31 µM | [19] 25.1 µM | [20] 28.1 µM | [21] 12.6 µM | [22] 42.5 µM | [23] 49.2 µM | [24] 25.3 µM | [56] 25.1 µM | [27] 42.8 µM | [28] 53.8 µM | [29] 73.5 µM | [30] 31.1 µM | [31] 49.8 µM | [32] 32.3 µM | [35] 30.4 µM | [36] 41.3 µM | [57] 17.7 µM | [37] 21.8 µM | [38] 47.9 µM | [59] 17.8 µM | [40] 71.1 µM | [41] > 100 µM | [42] 48.6 µM | [43] 2.14 µM | [45] > 100 µM | [46] 15.3 µM | [47] 64.7 µM | [48] 21.1 µM | [58] > 100 µM | [49] 44.4 µM

Reference: ChEMBL document CHEMBL1201862, “PubChem BioAssay data set” (2004)
